Data on nine compounds can be found in patent EP3964497A1, “SUBSTITUTED VICINAL DIAMINE COMPOUNDS AND THEIR USE IN THE TREATMENT, AMELIORATION OR PREVENTION OF PAIN” (priority 2020, dated 2022).

Molecules are shown by their SMILES. Like-named read-outs stand apart in the source and are kept apart here.

Test [1] concerns the target T1, µOR (Homo sapiens, UniProt P35372). Briefly: β-arrestin-2 recruitment, enzyme-fragment complementation assay in HEK-293 cells. The conditions noted are these: for Emax: HEK293, relative to the full effect of reference agonist DAMGO [=100%]; for β-arrestin recruitment EC50: mean of 3-8 tests, 90 min incubation, CBA = could not be analyzed (no dose-response curve). Format: cell-based. Also noted: expressed in transfected cells; host or cells: HEK-293 cells stably expressing EA-tagged β-arrestin-2, transiently transfected with µOR-PK1. As to the method: (§1) Functionally selective drugs, which are biased towards Gi protein activation over β-arrestin signaling at the µOR are indicated to show an improved side effect profile. Thus, the characterization of the functional properties of the described examples at the µOR were performed by determination of the ligand stimulated G-protein related signaling and β-arrestin recruitment applying cell based in-vitro test systems. Full and partial agonists as well as antagonists for G protein related signaling were identified.
Measurement of β-arrestin-2 recruitment was done applying an enzyme-fragment complementation assay as described previously (C. Gentzsch, K. Seier, A. Drakopoulos, M.-L. Jobin, Y. Lanoiselee, Z. Koszegi, D. Maurel, R. Sounier, H. Huebner, P. Gmeiner, S. Granier, D. Calebiro, M. Decker. Ang. Chem. Int. Ed. 2020, 59, 2-9. J. Hellmann, M. Drabek, J. Yin, J. Gunera, T. Proell, F. Kraus, C.J. Langmead, H. Huebner, D. Weikert, P. Kolb, D.M. Rosenbaum, P. Gmeiner. PNAS 2020, 117, 18059-18067). In brief, HEK-293 cells stably expressing the enzyme acceptor (EA) tagged β-arrestin-2 fusion protein were transiently co-transfected with the ProLink tagged µOR-PK1 After 24 h cells were transferred into 384-well microplates and cultured for further 24 h. To start arrestin recruitment compounds were added to the cells to get a final concentration in a range of 10 pM to 100 µM. After incubation for 90 min reaction was stopped by addition of detection mix. Chemiluminescence was determined in duplicates (3-8 individual experiments for each compound in comparison to the reference agonist DAMGO). Data analysis was done as described above.
(§2) In the above table, the numbers indicate mean EC50 values in nM and Emax values relative to the full effect of reference agonist DAMGO [=100%], respectively and are derived from 3-9 individual experiments for G-protein signaling and 3-8 tests for arrestin recruitment. ND = not determined.

Test [2] concerns the target T1, µOR. Briefly: G-protein mediated signaling, IP1 accumulation assay (HTRF) in HEK-293T cells with hybrid G-protein Gαqi. Format: cell-based. Also on record: expressed in transfected cells; host or cells: HEK-293T cells, transient transfection. The conditions noted are these: for Emax: HEK-293T, read-out: G-protein signaling Emax. On the procedure: as §1
The determination of G-protein stimulated µOR activation was measured applying an IP1 accumulation assay as described previously (J. Kruell, S.K. Fehler, L. Hofmann, N. Nebel, S. Maschauer, O. Prante, P. Gmeiner, H. Lanig, H. Huebner, M.R. Heinrich. ChemMedChem 2020, 15, 1175-1186. C. Gentzsch, K. Seier, A. Drakopoulos, M.-L. Jobin, Y. Lanoiselee, Z. Koszegi, D. Maurel, R. Sounier, H. Huebner, P. Gmeiner, S. Granier, D. Calebiro, M. Decker. Ang. Chem. Int. Ed. 2020, 59, 2-9). In brief, HEK-293T cells were grown to confluence of approximately 70% and transiently transfected with the cDNA of the human µOR receptor and the hybrid G-protein Gαqi. After one day cells were seeded into 384-well microplates. For testing cells were incubated with test compounds (final range of concentration from 1 pM up to 10 µM) for 180 min at 37 °C followed by addition of detection reagents. Time resolved fluorescence resonance energy transfer (HTRF) was determined using a microplate reader. Each compound was tested in duplicates in 3-9 individual experiments in comparison to the reference compound DAMGO. The resulting dose response curves were analyzed by nonlinear regression using the algorithms in PRISM 6.0 (GraphPad software, San Diego, CA), fitted with a sigmoid model and normalized to basal activity (0 %) and the maximal effect caused by the reference full agonist DAMGO (100 %).
as §2

Test [3] deals with T2, κOR (Homo sapiens, UniProt P41145).
T2 construct: expressed in transfected cells; host or cells: HEK 293T cells, transient transfection, membrane preparation
Briefly: competitive radioligand binding with [3H]diprenorphine, membranes of transfected HEK 293T cells. As to the method: (§3) To verify the subtype selectivity of the described compounds for µOR over δOP and κOR, respectively, the binding affinities of the described examples to the different human opioid receptors in an in-vitro test system were measured.
After preparation of membranes, radioligand displacement assays were run in 96-well format at a final volume of 200 µL in binding buffer (50 mM Tris-HCI, 1 mM EDTA, 5 mM MgCl2, 100 µg/mL bacitracin, 5 µg/mL soybean trypsin inhibitor, pH 7.4) with the radioligand [^3H]diprenorphine (specific activity = 31 Ci/mmol) at a final concentration of 0.20-0.30 nM. […] Unspecific binding was determined in the presence of 10 µM of the naloxone. […] The resulting competition curves of the receptor binding experiments were analyzed by nonlinear regression. […] Three to seven experiments per compound were performed, with each concentration in triplicate.

Test [4] addresses T1, µOR. Described as above. Also on record: expressed in transfected cells; host or cells: HEK 293T cells, transient transfection, membrane preparation. On the procedure:
as §3
(§4) For the determination of receptor binding affinity competitive radioligand binding experiments were performed as described in literature (H. Huebner, C. Haubmann, W. Utz, P. Gmeiner, J. Med. Chem., 2000, 43, 756-762). In brief, HEK 293T cells were transiently transfected with the cDNAs coding for the human opioid receptor subtypes µOR, δOR, and kOR, respectively, using a solution of polyethylenimine in PBS (PEI, linear, 25 kDa, Polysciences) as transfection reagent at a 3:1 PEI to cDNA ratio (I. Fish, A. Stoessel, K. Eitel, C. Valant, S. Albold, H. Huebner, D. Moeller, M.J. Clark, R.K. Sunahara, A. Christopoulos, B.K. Shoichet, P. Gmeiner, J. Med. Chem., 2017, 60, 9239-9250). After preparation of membranes, radioligand displacement assays were run in 96-well format at a final volume of 200 µL in binding buffer (50 mM Tris-HCI, 1 mM EDTA, 5 mM MgCl2, 100 µg/mL bacitracin, 5 µg/mL soybean trypsin inhibitor, pH 7.4) with the radioligand [^3H]diprenorphine (specific activity = 31 Ci/mmol) at a final concentration of 0.20-0.30 nM. […] Unspecific binding was determined in the presence of 10 µM of the naloxone. Protein concentrations were determined employing the method of Lowry with bovine serum albumin as standard (O.H. Lowry, N.J. Rosebrough, A.L. Farr, R.J. Randall, J. Biol. Chem., 1951, 193, 265-275). The resulting competition curves of the receptor binding experiments were analyzed by nonlinear regression. The data were initially fit using a sigmoid model to provide IC50 values, which were subsequently transformed to Ki values according to the equation of Cheng and Prusoff (Y.-C. Cheng, W. H. Prusoff, Biochem. Pharmacol., 1973, 22, 3099-3108). Three to seven experiments per compound were performed, with each concentration in triplicate.

Test [5] addresses T3, δOR (Homo sapiens, UniProt P41143).
T3 construct: expressed in transfected cells; host or cells: HEK 293T cells, transient transfection, membrane preparation
The test is described as above. On the procedure:
as §3, §4

The mark [6] stands for this setting: radioligand [3H]diprenorphine, number in brackets = number of experiments, read-out: mean Ki value κOR.
Where [7] appears, read: radioligand [3H]diprenorphine, number in brackets = number of experiments, read-out: mean Ki value δOR.

For orientation: Emax means the maximal effect, on the per cent scale that the assay sets. A word on the Ki: it is the dissociation constant of the complex between target and ligand, obtained from inhibition or displacement. As to `Cc1cc(O)cc(C)c1C[C@H](N)CNC(=O)/C=C/c1ccccc1` [Example 10, (S)-N-(2-Amino-3-(4-hydroxy-2,6-dimethylphenyl)propyl)cinnamamide formiate], the Emax in test [1] and in test [2] was under 5% each time. Also, the “β-arrestin recruitment EC50” value in test [1] is listed as “CBA”. Also, the “G-protein signaling EC50” value in test [2] (mean of 3-9 experiments, 180 min at 37 °C, CBA = could not be analyzed (no dose-response curve)) was “CBA”. For the same compound, the Ki was found to be 440 nM in test [3], 58 nM in test [4] and 510 nM in test [5].
As a reminder, the EC50 is the concentration giving half of the maximal effect. On to `CN(C)[C@H](CNC(=O)/C=C/c1ccccc1C(F)(F)F)Cc1ccc(O)cc1` [Example 7, (S,E)-N-(2-(Dimethylamino)-3-(4-hydroxyphenyl)propyl)-3-(2-(trifluoromethyl)phenyl)acrylamide], for which the Emax is under 5% in test [1] and 44% in test [2]. The “β-arrestin recruitment EC50” value in test [1] is “CBA”. In test [2], this compound registered an EC50 of 13 nM. In addition, the inhibitory constant (Ki) in test [3] (setting [6]) turned out to be 140 nM; in test [4], 28 nM; in test [5] (setting [7]), 180 nM.
Consider `CN(C)[C@H](CNC(=O)/C=C/c1cccc(C(F)(F)F)c1)Cc1ccc(O)cc1` [Example 8, (S,E)-N-(2-(Dimethylamino)-3-(4-hydroxyphenyl)propyl)-3-(3-(trifluoromethyl)phenyl)acrylamide formiate], for which the maximum response (Emax) in test [1] was under 5%; in test [2], 100%. The “β-arrestin recruitment EC50” value in test [1] was “CBA”. In addition, the response in test [2] was half-maximal at 15 nM (EC50). The inhibition constant Ki in test [3] amounted to 580 nM; in test [4], 30 nM; in test [5] it was 120 nM.
On to `CN(C)[C@H](CNC(=O)/C=C/c1ccc(C(F)(F)F)cc1)Cc1ccc(O)cc1` [Example 9, (S,E)-N-(2-(Dimethylamino)-3-(4-hydroxyphenyl)propyl)-3-(4-(trifluoromethyl)phenyl)acrylamide], for which the Emax is under 5% in test [1] and 92% in test [2]. Also, in test [1], the “β-arrestin recruitment EC50” value was “CBA”. In addition, the EC50 in test [2] came out at 67 nM. The Ki in test [3] (setting [6]) came out at 2800 nM; in test [4] (radioligand [3H]diprenorphine, number in brackets = number of experiments, read-out: mean Ki value µOR), 170 nM; in test [5] (setting [7]) it was 1100 nM.
For the compound `C/C(=C\C(=O)NC[C@H](Cc1ccc(O)cc1)N(C)C)c1ccccc1` [Example 3, (S,E)-N-(2-(Dimethylamino)-3-(4-hydroxyphenyl)propyl)-3-phenylbut-2-enamide], the maximal response (Emax) was under 5% in test [1] and 76% in test [2]. The “β-arrestin recruitment EC50” value in test [1] is listed as “CBA”. In test [2], this compound had an EC50 of 11 nM. In addition, the results for the Ki in test [3] (setting [6]), in test [4] and in test [5] (setting [7]) were 120 nM, 28 nM and 120 nM, respectively.
For `CN(C)[C@H](CNC(=O)/C=C/c1cccc2ccccc12)Cc1ccc(C(N)=O)cc1` [Example 18, (S,E)-4-(2-(Dimethylamino)-3-(3-(naphthalen-1-yl)acrylamido)propyl)benzamide formiate], the concentration for a half-maximal effect (EC50) in test [1] is 120 nM; in test [2], 9.8 nM. Besides, the Emax in test [1] turned out to be 4%; in test [2], 92%. The figures for the Ki in test [3], in test [4] and in test [5] were 200 nM, 6.2 nM and 130 nM, respectively.
With `CN(C)[C@H](CNC(=O)C#Cc1ccccc1)Cc1ccc(O)cc1` [Example 2, (S)-N-(2-(Dimethylamino)-3-(4-hydroxyphenyl)propyl)-3-phenylpropiolamide], the Emax in test [1] is under 5%; in test [2] it was 42%. In addition, the “β-arrestin recruitment EC50” value in test [1] is listed as “CBA”. This compound registered a concentration giving a half-maximal response (EC50) in test [2] of 22 nM. The results for the Ki in test [3] (setting [6]), in test [4] and in test [5] (setting [7]) were 230 nM, 18 nM and 140 nM, respectively.
As for `NC(=O)c1ccc(C[C@H](N)CNC(=O)/C=C/c2cccc(C(F)(F)F)c2)cc1` [Example 14, (S,E)-4-(2-Amino-3-(3-(3-(trifluoromethyl)phenyl)acrylamido)propyl)benzamide formiate], the results for the Emax in test [1] and in test [2] were under 5% and 75%, respectively. Moreover, the “β-arrestin recruitment EC50” value in test [1] is on record as “CBA”. Besides, in test [2] (mean of 3-9 experiments, 180 min at 37 °C, CBA = could not be analyzed (no dose-response curve), read-out: G-protein signaling EC50), the concentration giving a half-maximal response (EC50) amounted to 2200 nM. In addition, the results for the inhibition constant (Ki) in test [3], in test [4] and in test [5] were 5600 nM, 460 nM and 2900 nM, respectively.
For the compound `CN(C)[C@H](CNC(=O)C=Cc1ccccc1)Cc1ccc(O)cc1` (stereo in doubt) [Example 1, (S)-N-(2-(Dimethylamino)-3-(4-hydroxyphenyl)propyl)cinnamamide], the Emax is under 5% in test [1] and 63% in test [2]. Also, the “β-arrestin recruitment EC50” value in test [1] was “CBA”. In test [2], the EC50 amounted to 7 nM. For the same compound, the inhibition constant (Ki) turned out to be 120 nM in test [3] (setting [6]), 13 nM in test [4] and 25 nM in test [5]. Besides, the “binding to δOR (in words)” value in test [5] (statement in text referring to the radioligand binding table) is “high affinity”.
